Measurements: paper PMC10222987 (Viruses, 2023)
Like-named read-outs stand apart in the source and are kept apart here.

Experiments:
[1] = hamster, in vivo, sc
[2] = system: H1N1pdm09 (A/Osaka/129/2009) WT; test: microbe, parasite or virus in culture; format: cell-based; conditions: Influenza A virus, read-out: EC50 Mean
[3] = BALB/c, mouse, in vivo; for C24 (plasma concentration at 24 h): sc
H1N1pdm09.WT = conditions: mouse, in vivo
[4] = system: H3N2 (rgA/Victoria/3/75) WT; conditions: cited from earlier work
H1N1 (rgA/WSN/33) WT [5] = conditions: cited from earlier work
[6] = system: H3N2 (rgA/Victoria/3/75) WT; conditions: cited from earlier work; remark: listed apart in the source
H1N1 (rgA/WSN/33) WT [7] = conditions: cited from earlier work; remark: listed apart in the source

## O=C1c2c(O)c(=O)ccn2N([C@@H]2c3ccccc3SCc3c2ccc(F)c3F)[C@@H]2COCCN12 [baloxavir acid]
[1]; 10 mg/kg
  C24 (plasma concentration at 24 h): 17.3 ± 3.3 ng/mL
[1]; 30 mg/kg
  C24 (plasma concentration at 24 h): 45.7 ± 19.7 ng/mL
[2]
  EC50: 0.61 nM
[3]
  C24 of a simulated dose: 78.3 ng/mL
[3]; 20 mg/kg
  C24 (plasma concentration at 24 h): 47.4 ± 4.9 ng/mL
[3]; 30 mg/kg
  C24 (plasma concentration at 24 h): 70.8 ± 13.9 ng/mL
H1N1pdm09.WT
  Lung virus titer: almost to the LLOQ
[4]
  EC50: 1.13 nM
H1N1 (rgA/WSN/33) WT [5]
  EC50: 0.42 nM

## CCC(CC)O[C@@H]1C=C(C(=O)O)C[C@H](N)[C@H]1NC(C)=O [oseltamivir acid]
[6]
  IC50: 0.13 nM
H1N1 (rgA/WSN/33) WT [7]
  IC50: 0.8 nM

## CCOC(=O)C1=C[C@@H](OC(CC)CC)[C@H](NC(C)=O)[C@@H](N)C1 [oseltamivir phosphate]
H1N1pdm09.WT
  Lung virus titers vs vehicle: statistically lower compared with vehicle
